This passage reports kinematic viscosity and viscosity results from the NIST ThermoML archive (doi:10.1021/je600552b).

SMILES strings stand for the structures. ± gives the expanded uncertainty stated by the source.

The conditions of this series: 101.33 kPa, Liquid, Falling or rolling sphere viscometry.

Consider `CC/C=C\C/C=C\C/C=C\CCCCCCCC(=O)O` [all-cis-9,12,15-octadecatrienoic acid], for which the kinematic viscosity was determined as 1.55e-05 ± 7.9e-07 m2/s (293.15 K); 1.24e-05 ± 6.3e-07 m2/s (303.15 K); 8.91e-06 ± 4.5e-07 m2/s (313.15 K); 7.26e-06 ± 3.7e-07 m2/s (323.15 K); 5.96e-06 ± 3e-07 m2/s (333.15 K); 5.13e-06 ± 2.6e-07 m2/s (343.15 K).
As for `CCCCC/C=C\C/C=C\CCCCCCCC(=O)OC` [methyl (Z,Z)-9,12-octadecadienate], the viscosity (commonly the resistance of a fluid to flow) is 4.798 ± 0.17 mPa·s (293.15 K); 3.822 ± 0.13 mPa·s (303.15 K); 3.166 ± 0.11 mPa·s (313.15 K); 2.55 ± 0.088 mPa·s (323.15 K); 2.078 ± 0.071 mPa·s (333.15 K); 1.755 ± 0.06 mPa·s (343.15 K).
Regarding `CC/C=C\C/C=C\C/C=C\CCCCCCCC(=O)OC` [methyl (Z,Z,Z)-9,12,15-octadecatrienoate], the viscosity is, setting by setting: (293.15 K) 4.022 ± 0.14 mPa·s; (303.15 K) 3.301 ± 0.11 mPa·s; (313.15 K) 2.79 ± 0.096 mPa·s; (323.15 K) 2.299 ± 0.079 mPa·s; (333.15 K) 1.862 ± 0.064 mPa·s; (343.15 K) 1.596 ± 0.055 mPa·s.
Regarding `CCCCCCCC/C=C\CCCCCCCC(=O)OC` [methyl cis-9-octadecenoate], the viscosity runs as follows: (293.15 K) 6.37 ± 0.22 mPa·s; (303.15 K) 4.922 ± 0.17 mPa·s; (313.15 K) 3.939 ± 0.14 mPa·s; (323.15 K) 3.097 ± 0.11 mPa·s; (333.15 K) 2.472 ± 0.085 mPa·s; (343.15 K) 2.054 ± 0.071 mPa·s.
`CCCCCCCCCCCC(=O)OC` [methyl dodecanoate]: the viscosity runs as follows: (293.15 K) 3.096 ± 0.11 mPa·s; (303.15 K) 2.475 ± 0.085 mPa·s; (313.15 K) 2.044 ± 0.07 mPa·s; (323.15 K) 1.643 ± 0.056 mPa·s; (333.15 K) 1.383 ± 0.047 mPa·s; (343.15 K) 1.173 ± 0.04 mPa·s.
On to `CCCCCCCCCCCCCCCC(=O)OC` [methyl hexadecanoate], for which the viscosity runs as follows: (313.15 K) 3.764 ± 0.13 mPa·s; (323.15 K) 2.931 ± 0.1 mPa·s; (333.15 K) 2.336 ± 0.08 mPa·s; (343.15 K) 1.946 ± 0.067 mPa·s.
As to `CCCCCCCCCCCCCC(=O)OC` [methyl tetradecanoate], the viscosity (293.15 K) stood at 4.442 ± 0.15 mPa·s; the viscosity (303.15 K) is listed as 3.496 ± 0.12 mPa·s; the viscosity (313.15 K) was 2.841 ± 0.098 mPa·s; the viscosity (323.15 K) was determined as 2.252 ± 0.078 mPa·s; the viscosity (333.15 K) was found to be 1.819 ± 0.063 mPa·s; the viscosity (343.15 K) came to 1.521 ± 0.052 mPa·s.
As to `CC/C=C\C/C=C\C/C=C\CCCCCCCC(=O)OCC(COC(=O)CCCCCCC/C=C\C/C=C\C/C=C\CC)OC(=O)CCCCCCC/C=C\C/C=C\C/C=C\CC` [trilinolenin], the kinematic viscosity (293.15 K) was found to be 2.37e-05 ± 8.1e-07 m2/s; the kinematic viscosity (303.15 K) is 1.76e-05 ± 6.1e-07 m2/s; the kinematic viscosity (313.15 K) was determined as 1.36e-05 ± 4.6e-07 m2/s; the kinematic viscosity (323.15 K) turned out to be 1.07e-05 ± 3.7e-07 m2/s; the kinematic viscosity (333.15 K) was 8.68e-06 ± 3e-07 m2/s; the kinematic viscosity (343.15 K) stood at 7.18e-06 ± 2.5e-07 m2/s.
